Legend:
[1] = Turbidity of test solutions; assay type: physicochemical; conditions: purified water (reference), 0.05%
Experimental: (§1) 1:1 mol/mol stoichiometry complexes were prepared for the experiment. Nicotinic acid/alpha-CD complex was prepared by dissolving 11.22 g nicotinic acid and 98.63 g alpha-CD (89.66 g on dry basis) in 700 ml purified water. Nicotinamide/alpha-CD complex was prepared by dissolving 5.57 g nicotinamide and 49.3 g alpha-CD (44.4 g on dry basis) in 350 ml purified water and L-arginine/alpha-CD complex was prepared by dissolving 15.18 g L-arginine and 94.26 g alpha-CD (85.69 g on dry basis) in 700 ml purified water. Further, for all the three complexes, the liquid was frozen in dry ice bath and lyophilized. The dry lyophilizate was ground and sieved.
(§2) Clarity, pH, conductivity, density, viscosity, turbidity, surface tension and osmolality were determined in solutions prepared with purified water. […]

[2] = Viscosity of test solutions; assay type: physicochemical; conditions: purified water
Experimental: as §1
Clarity, pH, conductivity, density, viscosity, turbidity, surface tension and osmolality were determined in solutions prepared with purified water.

human aquaporin 1 (AQP1) = biological target: T1, human aquaporin 1 (AQP1) (Homo sapiens, UniProt P29972); assay: Xenopus oocyte swelling assay, osmotic water permeability; assay type: cell-based; conditions: 0.05% in water
T1 construct: host or cells: Xenopus laevis oocytes (mRNA injection)
T1 sequence (P29972 1-269): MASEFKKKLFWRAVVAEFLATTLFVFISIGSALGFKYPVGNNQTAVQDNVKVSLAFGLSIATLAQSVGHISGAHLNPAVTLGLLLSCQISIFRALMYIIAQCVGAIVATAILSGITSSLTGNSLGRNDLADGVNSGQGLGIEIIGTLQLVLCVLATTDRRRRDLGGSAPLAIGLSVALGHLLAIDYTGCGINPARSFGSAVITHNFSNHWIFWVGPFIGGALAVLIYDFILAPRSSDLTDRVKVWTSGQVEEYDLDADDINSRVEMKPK
Experimental: They were then kept on ice for another 15 min before ovarectomy was performed. Ovaries were incubated in collagenase (Worthington Type II, 10 mg/ml) in calcium free Barth's solution (CFBS, NaCl 88 mM, KCl 1 mM, MgSO4 0.8 mM, TRIS-HCl 5 mM, NaHCO3 2.4 mM). Following defolliculation, oocytes were rinsed in normal Barth's solution (MBS, NaCl 88 mM, KCl 1 mM, CaCl2 0.4 mM, Ca(NO3)2 0.33 mM, MgSO4 0.8 mM, TRIS-HCl 5 mM, NaHCO3 2.4 mM) before they were transferred to 96-well plates. For nuclear injection of the different DNA's into the oocytes and for cytoplasmic injection of the mRNA encoding human Aquaporin-1 channels into the oocytes, the Roboocyte automated injection and recording system was used. (Human Aquaporine 1 cDNA cloned in expressing vector pGEM-T were purchased from Sino Biological Inc. Transcription to AQP1 mRNA was performed by an Ecocyte cooperation partner lab.) The mRNA injection volume was in the range 20-50 nl at a mRNA concentration of 100 ng/μl. After two to three days of incubation in Barth's solution supplemented with Gentamycin, water uptake of the Xenopus Oocytes through AQP1 channels was tested in a swelling assay using video microscopy. […] Normal frog ringer (NFR, NaCl 90 mM, KCl 2 mM, CaCl2 2 mM, MgCl2 1 mM, HEPES 5 mM, osmolarity 200 mOsm/1) was used as control solution and was prepared freshly on the day of the experiments. […]

[3] = Surface tension of test solutions; assay type: physicochemical; conditions: purified water
Experimental: as §1, §2

SMILES: OC[C@H]1O[C@@H]2O[C@H]3[C@H](O)[C@@H](O)[C@@H](O[C@H]4[C@H](O)[C@@H](O)[C@@H](O[C@H]5[C@H](O)[C@@H](O)[C@@H](O[C@H]6[C@H](O)[C@@H](O)[C@@H](O[C@H]7[C@H](O)[C@@H](O)[C@@H](O[C@H]1[C@H](O)[C@H]2O)O[C@@H]7CO)O[C@@H]6CO)O[C@@H]5CO)O[C@@H]4CO)O[C@@H]3CO [Alpha Cyclodextrin, α-cyclodextrin]
- Turbidity (Abs, λ = 410 nm) [1]: 0.003 Abs
- Viscosity (25 C.) ([2]; 0.05%): 0.91 cP
- Viscosity (25 C.) ([2]; 0.10%): 0.92 cP
- Viscosity (25 C.) ([2]; 1.00%): 0.97 cP
- Viscosity (25 C.) ([2]; 2.00%): 1.06 cP
- water permeation of human-aquaporin-expressed oocytes (human aquaporin 1 (AQP1)): highest water permeation
- Surface Tension ([3]; 0.05%): 72 mN · m^−1
- Surface Tension ([3]; 0.10%): 72 mN · m^−1
- Surface Tension ([3]; 1.00%): 72 mN · m^−1
- Surface Tension ([3]; 2.00%): 73 mN · m^−1

— patent US20250332096A1, “BEVERAGE FORMULATION AND METHOD OF PROMOTING CELLULAR HYDRATION BY ENHANCING INTRACELLULAR PERMEATION” (Eastpond Laboratories Limited, priority 2024, published 2025)
